Patent US20140066385A1, “METHOD FOR TREATING CANCER BY COMBINED USE OF DRUGS” (Astellas Pharma Inc., priority 2011, published 2014)

Tests used:
[1] = system: human hormone-resistant prostatic cancer (PC-3); assay: Example 9: FK330 with paclitaxel in PC-3 tumor-bearing mice; format: in vivo, nude mice; conditions: FK330 100 mg/kg bid p.o. + paclitaxel 10 mg/kg/day i.v. multicycle
Protocol: The dose of FK330 is expressed in terms of the weight of a simple substance (non-hydrate). Paclitaxel was purchased from LC Laboratories, Inc. (Woburn, Mass., USA), and was used as paclitaxel.
FK330 was suspended (20 mg/mL) in a 0.5% aqueous methyl cellulose solution (0.5% MC), and was orally administered. Paclitaxel was prepared into a stock solution at 10 mg/mL with an ethanol/cremophor solution (mixed at 1:1), and then the stock solution was diluted to 1 mg/mL with physiological saline for injection (Otsuka Pharmaceutical Group) immediately before administration and was intravenously administered through the tail vein.
Human hormone-resistant prostatic cancer-derived PC-3 (CRL-1435) was obtained from American Type Culture Collection (VA, USA). […]
(§1) The body weight and the tumor diameter, determined by using a digital caliper, were measured twice a week. The tumor volume was calculated from the calculation formula for ellipsoid volume of (major axis×[minor axis]^2×0.5).
(§2) The results are expressed as the mean value (Mean)±standard error (SEM). […] Using the actual measured values of the tumor volume at each measurement time point, an unpaired statistical test (Student's t-test) of the difference between two groups was carried out between a single administration group and a combination use group. […]

[2] = system: human breast cancer (MDA-MB-468); assay: Example 11: FK330 with docetaxel in MDA-MB-468 tumor-bearing mice; format: in vivo, nude mice; conditions: FK330 100 mg/kg bid p.o. + docetaxel 15 mg/kg/day i.v. (Day 0 and Day 37)
Protocol: The dose of FK330 is expressed in terms of the weight of a simple substance (non-hydrate). Docetaxel (a docetaxel hydrate injectable preparation (Taxotere (trademark), for intravenous infusion)) was purchased from Sanofi-Aventis SA, and was used as docetaxel.
FK330 was suspended (20 mg/mL) in a 0.5% aqueous methyl cellulose solution (0.5% MC), and was orally administered. Docetaxel was prepared to a concentration of 20 mg/mL with 95% ethanol, and then diluted to 1.5 mg/mL with physiological saline for injection (Otsuka Pharmaceutical Group) immediately before administration and intravenously administered through the tail vein.
Human breast cancer-derived MDA-MB-468 (HTB-132) was obtained from American Type Culture Collection (VA, USA). […]
as §1
as §2, with “combined” for “combination”

For `O=C(/C=C/c1ccc(Cl)cc1)N[C@@H](Cc1ccccn1)C(=O)NCC(=O)N1CCC(Oc2cc(C(F)(F)F)ncn2)CC1` [FK330, N^2-[(2E)-3-(4-chlorophenyl)-2-propenoyl]-N-[2-oxo-2-(4-{[6-(trifluoromethyl)pyrimidin-4-yl]oxy}piperidin-1-yl)ethyl]-3-pyridin-2-yl-L-alaninamide], the “tumor volume reduction ratio compared with the paclitaxel-only group” value ([1]; Day 30, P<0.05) was 63.1%, the “tumor volume reduction ratio compared with the paclitaxel-only group” value ([1]; Day 55, P<0.001) was 72.1% and the “tumor volume reduction ratio compared with the docetaxel-only group” value ([2]; Day 37, P<0.05) was 46.6%. The “tumor volume reduction ratio compared with the docetaxel-only group” value ([2]; Day 65, P<0.01) was 76.6%.
